# Results from patent publication US10231453B2, “5-substituted imidazole derivatives” (BAYER CROPSCIENCE AKTIENGESELLSCHAFT, priority 2015, dated 2019).
# Where two headings read alike, the source gives them in different places.
# Key:
# [1] = system: Fusarium culmorum; test: In vitro test for the calculation of the ED50-value with microorganisms, Example Q4: Fusarium culmorum; type: cell-based; conditions: liquid culture, spore suspension, 4 to 7 days incubation, spectrometric measurement of mycelium growth
# Method: • Solvent: Dimethyl sulfoxide • Culture medium: 14.6 g anhydrous D-glucose (VWR), 7.1 g Mycological Peptone (Oxoid), 1.4 g granulated Yeast Extract (Merck), QSP liter • Inoculum: Spore suspension
# Fungicides were solubilized in DMSO and the solution used to prepare the required range of concentrations. The final concentration of DMSO used in the assay was ≤1%.
# A spore suspension was prepared and diluted to the desired spore density.
# Fungicides were evaluated for their ability to inhibit spore germination and mycelium growth in liquid culture assay. The compounds were added in the desired concentration to the culture medium with spores. After 4 to 7 days incubation, fungi-toxicity of compounds was determined by spectrometric measurement of mycelium growth. Inhibition of fungal growth was determined by comparing the absorbance values in wells containing the fungicides with the absorbance in control wells without fungicides.
# [2] = system: Pyrenophora teres; test: In vivo preventive test on Pyrenophora teres (net blotch on barley), Examples D, Q2 and R4; conditions: for pest or weed control at 500 ppm / pest or weed control at 100 ppm: Pyrenophora teres, 336 h
# [3] = system: Botrytis cinerea; test: In vitro test for the calculation of the ED50-value with microorganisms, Example Q4: Botrytis cinerea; type: cell-based; conditions: liquid culture, spore suspension, 4 to 7 days incubation, spectrometric measurement of mycelium growth
# [4] = system: Septoria tritici; test: In vivo preventive test on Septoria tritici (leaf spot on wheat), Examples E, Q3 and R5; conditions: for pest or weed control at 500 ppm / pest or weed control at 100 ppm: Zymoseptoria tritici, 576 h
# [5] = system: Botrytis cinerea; test: In vivo preventive test on Botrytis cinerea (grey mould) on gherkin, Examples B, Q1 and R2
# [6] = system: Leptosphaeria nodorum; test: In vitro test for the calculation of the ED50-value with microorganisms, Example Q4: Leptosphaeria nodorum; type: cell-based; conditions: liquid culture, spore suspension, 4 to 7 days incubation, spectrometric measurement of mycelium growth
# [7] = system: Septoria tritici; test: In vitro test for the calculation of the ED50-value with microorganisms, Example Q4: Septoria tritici; type: cell-based; conditions: liquid culture, spore suspension, 4 to 7 days incubation, spectrometric measurement of mycelium growth
# [8] = system: Fusarium graminearum; test: whole plant or invertebrate; type: in vivo; conditions: in Hordeum vulgare, 120 h, read-out: efficacy
# [9] = system: Alternaria brassicae; test: In vivo preventive test on Alternaria brassicae (leaf spot on radish), Examples A and R1; conditions: Alternaria brassicae, 144 h, 500 ppm of active ingredient, preventive spray, evaluated 6 days after inoculation, read-out: efficacy
# [10] = system: Phakopsora pachyrhizi; test: In vivo preventive Phakopsora test (soybeans), Example I; conditions: 168 h, 100 ppm of active ingredient, preventive spray, evaluated 7 days after inoculation, read-out: efficacy
# [11] = system: Pyricularia oryzae; test: whole plant or invertebrate; type: in vivo; conditions: 192 h, read-out: efficacy
# [12] = system: Fusarium culmorum; test: In vivo preventive Fusarium culmorum test (wheat), Example L; conditions: 120 h, 500 ppm of active ingredient, preventive spray, evaluated 5 days after inoculation, read-out: efficacy
# Method: After the spray coating has been dried, the plants are slightly injured by using a sandblast and afterwards they are sprayed with a conidia suspension of Fusarium culmorum.
# The test is evaluated 5 days after the inoculation.
# [13] = system: Alternaria solani; test: In vivo preventive Alternaria test (tomatoes), Example H; conditions: 72 h, 100 ppm of active ingredient, preventive spray, evaluated 3 days after inoculation, read-out: efficacy
# [14] = system: Sphaerotheca fuliginea; test: In vivo preventive test on Sphaerotheca fuliginea (powdery mildew on cucurbits), Examples F and R6; conditions: Podosphaera fuliginea, 360 h, preventive spray, evaluated 15 days after inoculation
# [15] = system: Leptosphaeria nodorum; test: In vivo preventive Leptosphaeria nodorum test (wheat), Example N; conditions: Parastagonospora nodorum, 192 h, 500 ppm of active ingredient, preventive spray, evaluated 8 days after inoculation, read-out: efficacy
# Source text: After the spray coating has been dried, the plants are sprayed with a spore suspension of Leptosphaeria nodorum.
# [16] = system: Venturia inaequalis; test: In vivo preventive Venturia test (apples), Example J; conditions: 240 h, read-out: efficacy
# Method: After the spray coating has dried on, the plants are inoculated with an aqueous conidia suspension of the causal agent of apple scab (Venturia inaequalis) and then remain for 1 day in an incubation cabinet at approximately 20° C. and a relative atmospheric humidity of 100%.
# The plants are then placed in a greenhouse at approximately 21° C. and a relative atmospheric humidity of approximately 90%.
# The test is evaluated 10 days after the inoculation.
# [17] = system: Puccinia recondita; test: In vivo preventive test on Puccinia recondita (brown rust on wheat), Examples C and R3; conditions: Puccinia recondita, 264 h, preventive spray, evaluated 11 days after inoculation
# [18] = system: Fusarium nivale (var. majus); test: In vivo preventive Fusarium nivale (var. majus) test (wheat), Example O; conditions: Microdochium nivale, 120 h, 500 ppm of active ingredient, preventive spray, evaluated 5 days after inoculation, read-out: efficacy
# Source text: After the spray coating has been dried, the plants are slightly injured by using a sandblast and afterwards they are sprayed with a conidia suspension of Fusarium nivale (var. majus).
# [19] = system: Uromyces appendiculatus; test: In vivo preventive test on Uromyces appendiculatus (bean rust), Examples G and R7; conditions: 264 h, preventive spray, evaluated 11 days after inoculation
# [20] = Measurement of LogP values by HPLC on reversed phase columns (EEC directive 79/831 Annex V.A8); type: physicochemical; conditions: method [a]: LC-UV, acidic range, 0.1% formic acid in water and acetonitrile as eluent; Table 1
# Method: Measurement of Log P values was performed as outlined above.
# [21] = system: Blumeria graminis fsp. hordei; test: In vivo preventive Blumeria test (barley), Example K; conditions: 168 h, 500 ppm of active ingredient, preventive spray, evaluated 7 days after inoculation, read-out: efficacy
# Source text: After the spray coating has been dried, the plants are dusted with spores of Blumeria graminis fsp. hordei.
# [22] = 500 ppm of active ingredient, preventive spray, evaluated 14 days after inoculation, read-out: efficacy
# [23] = 500 ppm of active ingredient, gherkin, read-out: efficacy
# [24] = 500 ppm of active ingredient, wheat, preventive spray, evaluated 24 days after inoculation, read-out: efficacy
# [25] = Botrytis cinerea, 500 ppm of active ingredient, preventive spray, evaluated 4 to 5 days after inoculation, read-out: efficacy
# [26] = 500 ppm of active ingredient, wheat, read-out: efficacy
# [27] = 500 ppm of active ingredient, bean, read-out: efficacy
Compound,Fusarium culmorum ED50 value in ppm [1] [ppm],Botrytis cinerea ED50 value in ppm [3] [ppm],Leptosphaeria nodorum ED50 value in ppm [6] [ppm],Septoria tritici ED50 value in ppm [7] [ppm],pest or weed control at 500 ppm [8] [%],pest or weed control at 100 ppm [10] [%],pest or weed control at 500 ppm [11] [%],pest or weed control at 500 ppm [12] [%],pest or weed control at 100 ppm [13] [%],"pest or weed control at 500 ppm [2, 22] [%]","pest or weed control at 500 ppm [14, 23] [%]","pest or weed control at 500 ppm [4, 24] [%]","pest or weed control at 500 ppm [5, 25] [%]",pest or weed control at 500 ppm [15] [%],pest or weed control at 100 ppm [16] [%],"pest or weed control at 500 ppm [17, 26] [%]",pest or weed control at 500 ppm [18] [%],"pest or weed control at 500 ppm [19, 27] [%]",chromatographic logP [20],pest or weed control at 500 ppm [21] [%],further results
OC(Cc1ccc(Cl)cc1F)(Cn1ccnc1)C1(Cl)CC1 (racemic) [reference compound],0.04,0.53,0.04,0.02,,,,,,,,,,,,,,,,,"Efficacy in % ([2]; Example Q2, rate of application 100 ppm): 0%; Efficacy in % ([2]; Example Q2, rate of application 500 ppm): 0%; Efficacy in % ([4]; Example Q3, rate of application 100 ppm, wheat): 0%; Efficacy in % ([4]; Example Q3, rate of application 500 ppm, wheat): 100%; Efficacy in % ([5]; Example Q1, rate of application 100 ppm): 70%; Efficacy in % ([5]; Example Q1, rate of application 500 ppm): 100%"
OC(Cc1ccccc1Cl)(Cn1cncc1F)C1(Cl)CC1 (stereo not drawn) [Example I-16],,,,,80 to 89,90 to 100,90 to 100,90 to 100,90 to 100,90 to 100,90 to 100,90 to 100,90 to 100,90 to 100,90 to 100,80 to 89,90 to 100,90 to 100,1.94,90 to 100,pest or weed control at 500 ppm [9]: 90 to 100%
OC(Cc1cc(F)ncc1Cl)(Cn1cncc1Cl)C1(Cl)CC1 (stereo not drawn) [Example I-18],,,,,90 to 100,90 to 100,90 to 100,80 to 89,90 to 100,90 to 100,90 to 100,90 to 100,90 to 100,90 to 100,90 to 100,90 to 100,90 to 100,90 to 100,2.01,90 to 100,pest or weed control at 500 ppm [9]: 70 to 79%
OC(Cc1ccc(Cl)cc1F)(Cn1cncc1Br)C1(Cl)CC1 (stereo not drawn) [Example I-30],0.01,0.08,0.01,<0.006,,90 to 100,90 to 100,,90 to 100,90 to 100,90 to 100,90 to 100,90 to 100,90 to 100,90 to 100,90 to 100,,90 to 100,2.55,90 to 100,"pest or weed control at 100 ppm ([2]; Example Q2, rate of application 100 ppm, read-out: Efficacy in %): 91%; pest or weed control at 500 ppm ([2]; Example Q2, rate of application 500 ppm, read-out: Efficacy in %): 94%; pest or weed control at 100 ppm ([2]; Example R4, rate of application 100 ppm, read-out: Efficacy in %): 81%; pest or weed control at 500 ppm ([2]; Example R4, rate of application 500 ppm, read-out: Efficacy in %): 94%; pest or weed control at 100 ppm ([14]; Example R6, gherkin, 100 ppm, read-out: Efficacy in %): 100%; pest or weed control at 500 ppm ([14]; Example R6, gherkin, 500 ppm, read-out: Efficacy in %): 100%; pest or weed control at 100 ppm ([4]; Example Q3, rate of application 100 ppm, wheat, read-out: Efficacy in %): 94%; pest or weed control at 500 ppm ([4]; Example Q3, rate of application 500 ppm, wheat, read-out: Efficacy in %): 98%; pest or weed control at 100 ppm ([4]; Example R5, wheat, preventive spray, 100 ppm, evaluated 24 days after inoculation, read-out: Efficacy in %): 94%; pest or weed control at 500 ppm ([4]; Example R5, wheat, preventive spray, 500 ppm, evaluated 24 days after inoculation, read-out: Efficacy in %): 98%; pest or weed control at 100 ppm ([5]; Botrytis cinerea, Example Q1, rate of application 100 ppm, read-out: Efficacy in %): 100%; pest or weed control at 500 ppm ([5]; Botrytis cinerea, Example Q1, rate of application 500 ppm, read-out: Efficacy in %): 100%; Efficacy in % ([5]; Example R2, rate of application 100 ppm): 100%; Efficacy in % ([5]; Example R2, rate of application 500 ppm): 100%; pest or weed control at 100 ppm ([17]; Example R3, wheat, 100 ppm, read-out: Efficacy in %): 88%; pest or weed control at 500 ppm ([17]; Example R3, wheat, 500 ppm, read-out: Efficacy in %): 94%; pest or weed control at 100 ppm ([19]; Example R7, bean, 100 ppm, read-out: Efficacy in %): 88%; pest or weed control at 500 ppm ([19]; Example R7, bean, 500 ppm, read-out: Efficacy in %): 100%"
N#Cc1cncn1CC(O)(Cc1ccccc1)C1(Cl)CC1 (stereo not drawn) [Example I-65],,,,,90 to 100,90 to 100,90 to 100,90 to 100,90 to 100,90 to 100,90 to 100,80 to 89,90 to 100,80 to 89,80 to 89,90 to 100,90 to 100,90 to 100,2.64,90 to 100,
N#Cc1cncn1CC(O)(Cc1ccc(F)cc1)C1(Cl)CC1 (stereo not drawn) [Example I-157],,,,,90 to 100,90 to 100,90 to 100,90 to 100,80 to 89,90 to 100,90 to 100,90 to 100,90 to 100,80 to 89,90 to 100,90 to 100,80 to 89,90 to 100,2.75,90 to 100,
